Results from PubChem BioAssay (NCI).
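1) Cells in 96-well plates. 2) Compound, 48 h, 5 concentrations. 3) Linear interpolation between surrounding doses. 4) Unreached endpoint = highest concentration. TGI is the concentration that stops growth completely.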

What was measured:
Test in all cases: DTP human tumour cell line panel, 48 h
786-0 renal = test system: 786-0 renal
SR leukemia = test system: SR leukemia
A498 renal = test system: A498 renal
SN12C renal = test system: SN12C renal
OVCAR-8 ovarian = test system: OVCAR-8 ovarian
IGROV1 ovarian = test system: IGROV1 ovarian
SK-MEL-28 melanoma = test system: SK-MEL-28 melanoma
M14 melanoma = test system: M14 melanoma
HCC-2998 colon = test system: HCC-2998 colon
NCI-H522 lung = test system: NCI-H522 lung
COLO 205 colon = test system: COLO 205 colon
HCT-116 colon = test system: HCT-116 colon
UO-31 renal = test system: UO-31 renal
KM12 colon = test system: KM12 colon
MCF7 breast = test system: MCF7 breast
MDA-MB-435 = test system: MDA-MB-435
PC-3 prostate = test system: PC-3 prostate
MDA-N = test system: MDA-N
HS 578T breast = test system: HS 578T breast
T-47D breast = test system: T-47D breast

Row | Compound | TGI (786-0 renal) | TGI (SR leukemia) | TGI (A498 renal) | TGI (SN12C renal) | TGI (OVCAR-8 ovarian) | TGI (IGROV1 ovarian) | TGI (SK-MEL-28 melanoma) | TGI (M14 melanoma) | TGI (HCC-2998 colon) | TGI (NCI-H522 lung) | TGI (COLO 205 colon) | TGI (HCT-116 colon) | TGI (UO-31 renal) | TGI (KM12 colon) | TGI (MCF7 breast) | TGI (MDA-MB-435) | TGI (PC-3 prostate) | TGI (MDA-N) | TGI (HS 578T breast) | TGI (T-47D breast)
1 | OC1[C@H]([C@H]2CCCC[C@@H]2O)CCC[C@@H]1[C@@H]1CCCC[C@H]1O (some centres not stated) | > 100 µM | > 100 µM | > 100 µM | > 100 µM | > 100 µM | > 100 µM | > 100 µM | > 100 µM | > 100 µM | > 100 µM | > 100 µM | > 100 µM | > 100 µM | > 100 µM |  |  |  |  |  | 
2 | ON/N=C/c1cc2c(cc1Br)OCO2 | > 386 µM | > 386 µM |  | > 386 µM | > 386 µM | > 386 µM | > 386 µM |  | > 386 µM | > 386 µM | > 386 µM | > 386 µM |  | > 386 µM |  |  |  |  |  | 
3 | N#CN=C(N)c1sc2nc3c(c(-c4ccc(Br)cc4)c2c1N)CCCC3 | 50.2 µM | 50.3 µM | 43.1 µM | 58.1 µM | 86.8 µM |  | > 100 µM | > 100 µM | 60.3 µM |  | 44.8 µM | 33.1 µM | 57.6 µM | 59.7 µM | > 100 µM | 13.6 µM | 52.7 µM | 34.4 µM |  | 
4 | CCNC(C)Cc1ccccc1 (configuration not stated) | > 100 µM | > 100 µM | > 100 µM | > 100 µM | > 100 µM | > 100 µM | > 100 µM | > 100 µM | > 100 µM | > 100 µM | > 100 µM | > 100 µM | > 100 µM | > 100 µM |  |  |  |  |  | 
5 | CC(=O)OC12/C(=N/O)CCCCCC1c1ccccc12 (configuration not stated) | > 100 µM | > 100 µM |  | > 100 µM | > 100 µM |  | > 100 µM |  |  | 98.9 µM | > 100 µM | > 100 µM | > 100 µM | > 100 µM |  |  |  |  |  | 
6 | COc1ccc(Oc2cccc(/C=C3/C(=O)Nc4ccccc43)c2)cc1 | 24.1 µM |  | 25.4 µM | 22.8 µM | > 100 µM | 20.9 µM | 23.6 µM | 24.3 µM | 21.3 µM | 19.6 µM | 14 µM | 15.2 µM | 20 µM | 18 µM | 12.8 µM | 13.8 µM | 18.8 µM |  | 45.8 µM | 9.75 µM
7 | Cc1c(C#N)c2nnn(-c3ccc(Cl)cc3)c(=O)n2c1-c1ccccc1 | 7.59 µM | > 56.6 µM | 3.92 µM | 3.85 µM | 11.2 µM | 16.9 µM | > 51.7 µM | 14 µM | 0.201 µM | 0.207 µM | 0.319 µM | 10.9 µM | > 51.3 µM | 11.6 µM | 19.5 µM | 0.154 µM | 9.12 µM |  | > 56.3 µM | 45.2 µM
8 | CC[C@@]1(N(C)C)C(=O)OCc2c1cc1n(c2=O)Cc2cc3ccccc3nc2-1 | 73.7 µM |  | > 100 µM |  | 31.2 µM |  | > 100 µM | > 100 µM | > 100 µM | 28.7 µM | > 100 µM | > 100 µM | 77 µM | > 100 µM | > 100 µM | > 100 µM | > 100 µM |  |  | 52.6 µM
9 | O=S(=O)(O)c1c(Cl)cc(O)c2ncccc12 | > 100 µM | > 100 µM | > 100 µM | > 100 µM | > 100 µM | > 100 µM | > 100 µM | > 100 µM | > 100 µM |  | > 100 µM | > 100 µM | > 100 µM | > 100 µM | > 100 µM | > 100 µM | > 100 µM | > 100 µM |  | > 100 µM
10 | Nc1sc2c(c1C(=O)c1ccc(Cl)c(Cl)c1)CCCC2 | > 100 µM | > 100 µM |  | > 100 µM | > 100 µM |  | > 100 µM | > 100 µM | 49.3 µM | 50.2 µM | > 100 µM | > 100 µM | > 100 µM | > 100 µM | 64.8 µM | > 100 µM | > 100 µM |  | > 100 µM | > 100 µM
11 | CCC(C)n1c(C)nc2c1C(=O)c1ccccc1C2=O (configuration not stated) | > 100 µM | > 100 µM |  | > 100 µM | > 100 µM | > 100 µM | > 100 µM | > 100 µM | > 100 µM | > 100 µM | > 100 µM | > 100 µM | > 100 µM | > 100 µM |  |  |  |  |  | 
12 | CCc1ccc(N=Cc2cc(OC)c(OC)c(OC)c2)cc1 | > 100 µM |  | > 100 µM | > 100 µM | > 100 µM | > 100 µM | > 100 µM | > 100 µM |  | > 100 µM | > 100 µM | > 100 µM | > 100 µM | > 100 µM |  |  |  |  |  | 
13 | Oc1ccc(-c2csc(NNC3=NC/C(=C/c4ccc5c(c4)OCO5)S3)n2)cc1O | > 100 µM |  |  | > 100 µM | > 100 µM | 65.3 µM | > 100 µM | > 100 µM | > 100 µM |  | > 100 µM | > 100 µM | 69.2 µM | > 100 µM | > 100 µM | > 100 µM | > 100 µM | > 100 µM |  | > 100 µM
14 | Nc1ccc(S(=O)(=O)Nc2nnc(S(N)(=O)=O)s2)cc1 | > 100 µM | > 100 µM | > 100 µM |  |  |  |  | > 100 µM | > 100 µM | > 100 µM | > 100 µM | > 100 µM | > 100 µM | > 100 µM | > 100 µM | > 100 µM |  |  |  | > 100 µM
15 | CC1(C)CCC[C@@]2(C)C1CCC1(C)C(CCc3ccoc3)/C(=C/OS(=O)(=O)O)CCC12 (some centres not stated) (tested in a mixture with another compound) | > 100 µM | > 100 µM | > 100 µM | > 100 µM | > 100 µM | > 100 µM | > 100 µM | > 100 µM | > 100 µM |  | > 100 µM | 38.9 µM | > 100 µM | > 100 µM |  |  |  |  |  | 
16 | O=C(/C=C/c1ccc(OCCCOc2ccc(/C=C/C(=O)c3ccccc3)cc2)cc1)c1ccccc1 | > 100 µM | > 100 µM | > 100 µM | > 100 µM | > 100 µM | > 100 µM | > 100 µM | > 100 µM | > 100 µM |  | > 100 µM | > 100 µM | > 100 µM |  |  |  |  |  |  | 
17 | CN(C)CCOc1cccc2c1C(=O)c1ccccc1C2=O | 52 µM |  | 33.3 µM | 37.3 µM | 56 µM | 43.4 µM | 28.6 µM | 26.3 µM | 30.3 µM | 20.5 µM | 16.1 µM | 17.2 µM | 45.2 µM | 26.2 µM |  |  |  |  |  | 
18 | O=P1(O)C=CC2(CCCC2)O1 | > 100 µM | > 100 µM | > 100 µM | > 100 µM | > 100 µM | > 100 µM | > 100 µM | > 100 µM | > 100 µM | > 100 µM | > 100 µM | > 100 µM |  | > 100 µM | > 100 µM | > 100 µM | > 100 µM | > 100 µM |  | > 100 µM
19 | O=C(OCc1ccccc1CN1CCOCC1)c1cccc(Br)c1 | > 100 µM |  | > 100 µM | > 100 µM | > 100 µM | > 100 µM | > 100 µM | > 100 µM | > 100 µM | 53.4 µM | > 100 µM | > 100 µM | > 100 µM |  | > 100 µM | > 100 µM | > 100 µM |  | > 100 µM | 49.6 µM
20 | Cc1ccccc1C(=O)c1c(O)c2c(c(O)c1Br)CCCC2 | 27.9 µM | 44.5 µM | 43.7 µM | 33.3 µM | 36 µM | 42.6 µM |  | 29.1 µM | 34 µM | 23.4 µM | 34.2 µM | 30.2 µM | 31.7 µM | 30.9 µM |  |  |  |  |  | 
21 | CC(=O)[C@@H]1[C@@H](OC(=O)CCC(C)COC2OC(CO)C(O)C(O)C2O)C[C@H]2[C@@H]3CC=C4C[C@@H](OC5OC(CO)C(OC6OC(C)C(O)C(O)C6O)C(O)C5OC5OC(C)C(O)C(O)C5O)CC[C@]4(C)[C@H]3CC[C@]12C (some centres not stated) | > 100 µM | > 100 µM | > 100 µM | > 100 µM | > 100 µM |  | > 100 µM | > 100 µM | > 100 µM | 97 µM | > 100 µM | > 100 µM | > 100 µM | > 100 µM | > 100 µM | > 100 µM | > 100 µM | > 100 µM |  | > 100 µM
22 | Cc1ccc(S(=O)(=O)c2c(N)c3nc4ccccc4n3c3nc4ccccc4nc23)cc1 | > 100 µM | > 100 µM |  | > 100 µM | > 100 µM | > 100 µM | > 100 µM | > 100 µM | > 100 µM | > 100 µM | > 100 µM | > 100 µM | > 100 µM | > 100 µM |  |  |  |  |  | 
23 | Cc1cc(N(CCC#N)CCC#N)ccc1/C=C1N=C(/C=C\c2ccccc2)OC\1=O | > 100 µM | > 100 µM | > 100 µM | > 100 µM | > 100 µM | > 100 µM | > 100 µM | > 100 µM | > 100 µM | > 100 µM | > 100 µM | > 100 µM | > 100 µM | > 100 µM |  |  |  |  |  | 
